Source: patent US11554124B2, “Hematopoiesis-enhancing agent” (priority 2018, dated 2023)

Assays:
[1] = tested on: SAM present in erythroblasts; test: Abundance of SAM in bone marrow erythroblasts of treated mice (mass spectrometry); format: in vivo, mouse; details: CLEU 50 mg/body i.p., bone marrow subset II, Day 2, vs PBS
Description: Wild-type mice with a genetic background of C57BL/6J were purchased from Charles River Laboratories, Inc. Mice at 8 to 14 weeks of age were used for analysis. For CLEU treatment (50 mg/body), a solution of cycloleucine (CLEU) was prepared by diluting cycloleucine (CLEU) (Sigma) in PBS (50 mg/ml), and 1 ml of the CLEU solution was administered intraperitoneally. For AKBA treatment (2 mg/body), 2 mg AKBA (Enzo Life Sciences)/20% DMSO/1 mL PBS solution was administered intraperitoneally. Vehicle without AKBA was used as a control. For measuring complete blood count of peripheral blood, peripheral blood was collected from facial veins and counted by use of an automated animal blood cell counter (microsemi LC-662). All of the experiments conducted in this study were approved by the Animal Experiment Committee of the Environmental Safety Committee of Tohoku University. BM cells and spleen cells were harvested in a conventional manner. Cells were stained with combinations of antibodies specific to erythroblasts and mature cells, to thereby identify them. The cells were visualized with antibody and streptavidin-peridinin chlorophyll protein-cyanin 5.5. […] Flow cytometric analysis and cell sorting were performed according to the manufacturer's protocol using FACS AriaII (BD), and then the obtained data were analyzed using FlowJo software (TreeStar). […]

[2] = Complete blood count of peripheral blood of treated mice; format: in vivo; details: CLEU 50 mg/body i.p.
Description: Wild-type mice with a genetic background of C57BL/6J were purchased from Charles River Laboratories, Inc. Mice at 8 to 14 weeks of age were used for analysis. For CLEU treatment (50 mg/body), a solution of cycloleucine (CLEU) was prepared by diluting cycloleucine (CLEU) (Sigma) in PBS (50 mg/ml), and 1 ml of the CLEU solution was administered intraperitoneally. For AKBA treatment (2 mg/body), 2 mg AKBA (Enzo Life Sciences)/20% DMSO/1 mL PBS solution was administered intraperitoneally. Vehicle without AKBA was used as a control. For measuring complete blood count of peripheral blood, peripheral blood was collected from facial veins and counted by use of an automated animal blood cell counter (microsemi LC-662). All of the experiments conducted in this study were approved by the Animal Experiment Committee of the Environmental Safety Committee of Tohoku University.

erythropoietin = test: Serum erythropoietin levels determined by ELISA; format: in vivo, mouse; details: CLEU 50 mg/body i.p., vs PBS
Text: FIG. 2 is the experimental result showing that a significant erythropoiesis was induced independently of erythropoietin as a result of SAM reduction by CLEU. Panel A: Abundance of SAM in cells selected from bone marrow subset II treated with PBS or CLEU (Day 2). Panel B: Peripheral blood hemoglobin concentration on the days indicated after PBS or CLEU treatment. Panel C: Total bone marrow cells harvested from the left and right femur and tibiae of PBS or CLEU treated mouse (Day 2). Panel D: Representative image (photograph) of tibia of PBS or CLEU treated mouse (Day 2). Panels E and F: Matured bone marrow cells from each group analyzed by flow cytometry (Day 2). Representative results of flow cytometric analysis are shown in Panel E. Cumulative cell numbers in each of the indicated groups are shown in F. Red blood cell (Ter119^+ Gr1^− B220^− CD4^− CD8^−), myeloid (Gr1^+ Ter119^− B220^− CD4^− CD8^−), and B cells (B220^+ Ter119^− Gr1^− CD4^− CD8^−). Panels G and H: Numbers of bone marrow erythroblasts in each of the subsets analyzed by flow cytometry (Day 2). […] Panel L: Serum erythropoietin levels determined by ELISA. […] For measuring complete blood count of peripheral blood, peripheral blood was collected from facial veins and counted by use of an automated animal blood cell counter (microsemi LC-662). […]

NC1(C(=O)O)CCCC1 [CLEU, cycloleucine]
abundance of SAM present in erythroblasts [1]: reduce the abundance of SAM
hematocrit ([2]; Days 1-6, vs PBS): marked increase
platelet counts ([2]; Days 1-6, vs PBS): no particularly consistent differences
red blood cells ([2]; Days 1-6, vs PBS): marked increase
white blood cell counts ([2]; Days 1-6, vs PBS): no particularly consistent differences
hemoglobin levels ([2]; peripheral blood, vs PBS): marked increase
serum erythropoietin levels (erythropoietin): significantly down-regulated
